# Where two headings read alike, the source gives them in different places.
# What was measured:
# Type in all cases: in vivo
# Kochia (Kochia scoparia) [1] = experiment: Test A preemergence; conditions: Bassia scoparia, pre-emergence, 240 h, preemergence; for pest or weed control at 125 g/ha: 125 g ai/ha, 0 to 100 scale where 0 is no effect and 100 is complete control; for pest or weed control at 500 g/ha: 500 g ai/ha
# In short: (§1)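 Seeded soil received test chemicals as a preemergence directed spray, and seedlings at one to two leaves, 2–10 cm tall, received them postemergence, in a non-phytotoxic, surfactant-containing solvent mixture. Pots were held in a greenhouse for approximately 10 d, then rated for injury from 0, no effect, to 100, complete control.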
# [2] = tested on: pigweed (Amaranthus retroflexus); experiment: Test A postemergence; conditions: Amaranthus retroflexus, post-emergence, 240 h, 125 g ai/ha, visual injury after approximately 10 d, read-out: Plant response rating, Pigweed
# In short: as §1
# [3] = tested on: barnyardgrass (Echinochloa crus-galli); experiment: Test A postemergence; conditions: Echinochloa crus-galli, post-emergence, 240 h, 125 g ai/ha, visual injury after approximately 10 d, read-out: Plant response rating, Barnyardgrass
# In short: as §1
# Kochia (Kochia scoparia) [4] = experiment: Test A postemergence; conditions: Bassia scoparia, post-emergence, 240 h, 125 g ai/ha, visual injury after approximately 10 d, read-out: Plant response rating, Kochia
# In short: as §1
# corn (Zea mays) = experiment: Test A postemergence; conditions: Zea mays, post-emergence, 240 h, 125 g ai/ha, visual injury after approximately 10 d
# In short: as §1
# [5] = tested on: ryegrass, Italian (Italian ryegrass, Lolium multiflorum); experiment: Test A postemergence; conditions: Lolium multiflorum, post-emergence, 240 h, 125 g ai/ha, visual injury after approximately 10 d, read-out: Plant response rating, Ryegrass, Italian
# In short: as §1
# [6] = tested on: wheat (Triticum aestivum); experiment: Test A postemergence; conditions: Triticum aestivum, post-emergence, 240 h, 125 g ai/ha, visual injury after approximately 10 d, read-out: Plant response rating, Wheat
# In short: as §1
# [7] = tested on: ragweed (common ragweed, Ambrosia elatior); experiment: Test A postemergence; conditions: Ambrosia artemisiifolia, post-emergence, 240 h, 125 g ai/ha, visual injury after approximately 10 d, read-out: Plant response rating, Ragweed
# In short: as §1
# [8] = tested on: giant foxtail (Setaria faberii); experiment: Test A postemergence; conditions: Setaria faberi, post-emergence, 240 h, 125 g ai/ha, visual injury after approximately 10 d, read-out: Plant response rating, Foxtail, Giant
# In short: as §1
# [9] = tested on: Galium (catchweed bedstraw, Galium aparine); experiment: Test A postemergence; conditions: Galium, post-emergence, 240 h, 125 g ai/ha, visual injury after approximately 10 d, read-out: Plant response rating, Galium
# In short: as §1
# [10] = tested on: blackgrass (Alopecurus myosuroides); experiment: Test A postemergence; conditions: Alopecurus myosuroides, post-emergence, 240 h, 125 g ai/ha, visual injury after approximately 10 d, read-out: Plant response rating, Blackgrass
# In short: as §1
# [11] = tested on: sedge, umbrella (small-flower umbrella sedge, Cyperus difformis); experiment: Test B flooded paddy test; conditions: Cyperus difformis, Flood, 250 g ai/ha; scale of 0 to 100 where 0 is no effect and 100 is complete control; read-out: Sedge, Umbrella plant response rating
# In short: (§2)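 2-leaf plants; pots flooded 3 cm over soil; cpd added to paddy water; depth held; greenhouse 13–15 d; visual rating vs controls, 0 = no effect, 100 = complete control.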
# [12] = tested on: barnyardgrass (Echinochloa crus-galli); experiment: Test B flooded paddy test; conditions: Echinochloa crus-galli, Flood, 250 g ai/ha; scale of 0 to 100 where 0 is no effect and 100 is complete control; read-out: Barnyardgrass plant response rating
# In short: as §2
# rice (Oryra sativa) = experiment: Test B flooded paddy test; conditions: Oryza sativa, Flood, 250 g ai/ha; scale of 0 to 100 where 0 is no effect and 100 is complete control; read-out: Rice plant response rating
# In short: as §2
# [13] = tested on: ducksalad (Heteranthera limosa); experiment: Test B flooded paddy test; conditions: Heteranthera limosa, Flood, 250 g ai/ha; scale of 0 to 100 where 0 is no effect and 100 is complete control; read-out: Ducksalad plant response rating
# In short: as §2
# [14] = Postemergence, 0 to 100 scale where 0 is no effect and 100 is complete control
# [15] = postemergence, 0 to 100 scale (0 no effect, 100 complete control)
structure (smiles),measurement,setting,value
O=C1NC[C@H](c2cccc(C(F)(F)F)n2)[C@H]1C(=O)Nc1ccccc1F [Compound 940],pest or weed control at 125 g/ha,Kochia (Kochia scoparia) [1]; read-out: Kochia plant response rating,0%
same,pest or weed control at 500 g/ha,"Kochia (Kochia scoparia) [1]; visual injury rating about 10 d after treatment, 0 to 100 scale (0 no effect, 100 complete control), read-out: Kochia plant response rating",0%
same,pest or weed control at 125 g/ha,[2]; [14],0%
same,pest or weed control at 125 g/ha,[3]; [14],10%
same,pest or weed control at 125 g/ha,Kochia (Kochia scoparia) [4]; [14],0%
same,"Corn plant response rating (crop injury, 0 = no effect, 100 = complete kill) at 125 g/ha",corn (Zea mays); [14],0%
same,pest or weed control at 125 g/ha,[5]; [14],0%
same,plant injury at 125 g/ha,[6]; [14],0%
same,pest or weed control at 125 g/ha,[7]; [14],0%
same,pest or weed control at 125 g/ha,[8]; [14],0%
same,pest or weed control at 125 g/ha,[9]; [14],0%
same,pest or weed control at 125 g/ha,[10]; [14],0%
same,pest or weed control at 250 g/ha,[11],0%
same,pest or weed control at 250 g/ha,[12],0%
same,pest or weed control at 250 g/ha,rice (Oryra sativa),0%
same,pest or weed control at 250 g/ha,[13],0%
O=C1NC[C@H](c2ccc3c(c2)OCO3)[C@H]1C(=O)Nc1ccccc1F [Compound 767],pest or weed control at 125 g/ha,"Kochia (Kochia scoparia) [1]; visual rating after approx. 10 d, read-out: Plant response rating, Kochia",0%
same,pest or weed control at 500 g/ha,"Kochia (Kochia scoparia) [1]; 0 to 100 scale, 0 = no effect, 100 = complete control, read-out: Plant response rating, Kochia",0%
same,pest or weed control at 125 g/ha,[2]; [15],0%
same,pest or weed control at 125 g/ha,[3]; [15],70%
same,pest or weed control at 125 g/ha,Kochia (Kochia scoparia) [4]; [15],0%
same,"Corn plant response rating (crop injury, 0 = no effect, 100 = complete kill) at 125 g/ha",corn (Zea mays); [15],0%
same,pest or weed control at 125 g/ha,[5]; [15],0%
same,plant injury at 125 g/ha,[6]; [15],0%
same,pest or weed control at 125 g/ha,[7]; [15],0%
same,pest or weed control at 125 g/ha,[8]; [15],0%
same,pest or weed control at 125 g/ha,[9]; [15],0%
same,pest or weed control at 125 g/ha,[10]; [15],0%
same,pest or weed control at 250 g/ha,[11],0%
same,pest or weed control at 250 g/ha,[12],0%
same,pest or weed control at 250 g/ha,rice (Oryra sativa),0%
same,pest or weed control at 250 g/ha,[13],100%
